From patent US20160106439A1, “PNEUMATIC TOURNIQUET” (BIONUMERIK PHARMACEUTICALS, INC., priority 2013, published 2016)
pIC50: −log10 of the molar value. Where “and” joins values, the source holds several entries; their conditions need not be identical. Equal values may be shown once. Entries after “also recorded” stand apart in the source; their conditions may differ. Read-outs that look alike come from different tables or passages of the source.

Columns and labels:
[1] = target: ROS1 kinase (Homo sapiens, UniProt P08922); conditions: for effect on crizotinib inhibition of ROS1 kinase activity: ATP and polyGT
Method: The substrate that was phosphorylated by the kinase, polyglutamate-tyrosine (PolyGT), was purchased from Sigma (P0275, lot 120M5007V).
All other reagents were purchased from Sigma Aldrich. A Tecan Ultra microplate reader with XFluor4 software (Tecan, V4.51) and RdrOle software (Tecan, V4.50) were used in this study.
ROS1 kinase phosphorylated the polyGT substrate using the ATP cofactor and produced ADP. […] The reactions, in microtubes, were incubated for 60 minutes at 25° C. in a water bath. Following this 60 minute incubation, 10 μL aliquots were transferred to microplates and the kinase activity was evaluated using the Promega ADP-glo system that monitored, in an endpoint assay, ADP produced when ROS1 kinase phosphorylated the PolyGT substrate.
It should be noted that numerous controls were tested and included the assay components indicated in the columns of Table 10 below (where + indicates the component was included and an empty space indicates it was not included).
The Kinase Assays, as described in Section II above, were run in triplicate or quadruplicate in microplates. Following these assays, the ADP-glo detection system (Promega) was used to determine how much ADP had been produced.
For 10 μL volume assays, to each microplate well containing 10 μL of kinase reaction was added ADP-glo reagent (10 μL), the microplates were spun in a table top centrifuge (1000 rpm (123×g) for 1 minute) to ensure that no reagent remained on the walls of the individual wells, and then agitated for 1 minute to ensure optimal mixing. The microplates were incubated at 25° C. on a heat block for 40 minutes. Kinase detection reagent (20 μL) was then added and, as above, centrifugation and agitation was repeated; with the microplates being allowed to incubate at 25° C.±1° C. on a heat block for 40 minutes. Following the incubation of the kinase detection reagent, the microplates were read on a Tecan Ultra microplate reader. The Tecan Ultra contained a built-in plate definition file for the whole area 96-well, white Corning microplates; however a microplate definition file for the half area 96-well Corning plates was created using the RdrOle component of the Tecan Ultra software.
Therefore, each mole of PolyGT polymer of 20,000 g/mole would contain approximately 28 moles of the glu-glu-glu-glu-tyr “subpolymer.”
Typically, a 10 μL assay volume would contain 2 μg of the polyGT substrate. Assuming the lower polymer mass of 20,000 g/mol mass, this translates to approximately 10 μM polyGT per assay and […] glu-glu-glu-glu-tyr “subpolymer” per assay.
Data from ROS1 kinase assays run on the Tecan Ultra microplate spectrophotometer were collected in Microsoft Excel. Error calculations and graphical representations were performed in Microsoft Office Excel (Microsoft Corporation, Redmond, Wash., USA). Determination of IC25, IC50 and IC75 values were accomplished using Origin Lab software (OriginLab Corporation, Northampton, Mass., USA).

[2] = target: WT EGFR kinase (Homo sapiens, UniProt P00533)
[3] = target: T790M EGFR kinase (Homo sapiens, UniProt P00533, T790M); assay: T790M EGFR kinase assay (ADP-glo); type: biochemical
[4] = target: T1, Recombinant human ERCC1 (Homo sapiens, UniProt P07992); assay: Tavocept-derived mesna adducts on ERCC1 (trypsin digest, LC-MS); type: binding; conditions: 20 mM Tavocept, LC-MS of tryptic fragments
T1 construct: 6xHis (N); purchased Creative BioMart; host or cells: E. coli
Method: Recombinant human ERCC1 (1 mg; 27.8 nanomoles, Creative BioMart) was reduced using a vast excess of dithiothreitol (DTT, 100 μL of a 500 mM stock) in ammonium bicarbonate (40 mM, pH 8.0) at 37° C. for 75 minutes (total reaction volume was 900 μL). […] Each 800 μL reaction was then chromatographed over a NAP10 column. This step removed unreacted Tavocept and was used for the buffer control simply to ensure that both samples received the same handling/manipulation during the course of the experiment. The elution volume from each NAP10 column was 1.2 mL. […] Trypsin digestion reactions were incubated for 1 hour at 30° C. and then for 17 hours at room temperature (23° C.). Following the Trypsin digest, the samples were lyophilized to dryness overnight and then resuspended in a volume of approximately 100 μL water and analyzed using LC-MS. A Symmetry C18 HPLC column (Waters, Franklin, Mass.; 3.5 μm; 4.6 mm×75 mm) and a Waters Alliance liquid chromatography system (Waters 2695, Franklin, Mass., USA) coupled to a Micromass single quadropole mass detector (Micromass ZMD, Manchester, UK) were used to analyze fragments from trypsin-digested human ERCC1. The mobile phase contained 0.1% of formic acid throughout the run and the flow rate was 0.35 mL/min. […]

[5] = cited from earlier work
[6] = target: T2, FTase (Homo sapiens, UniProt P49354+P49356); assay: FTase-mediated farnesylation of Dansyl-GCVLS peptide; type: biochemical
T2 construct: purchased Abcam

[7] = target: T3, Human Grx (Homo sapiens, UniProt P35754); assay: MS and crystal structure of Grx with Tavocept-derived mesna adducts; type: binding
T3 construct: 6xHis (TEV-cleavable) (N, cleaved yes); made in house; host or cells: E. coli BL21 (RIPL)
T3 sequence (P35754 whole entry): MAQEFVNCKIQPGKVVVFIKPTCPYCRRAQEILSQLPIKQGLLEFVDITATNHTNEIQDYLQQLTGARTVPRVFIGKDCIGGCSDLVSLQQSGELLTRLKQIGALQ

Chain of T790M EGFR kinase (P00533 25-1210 T790M): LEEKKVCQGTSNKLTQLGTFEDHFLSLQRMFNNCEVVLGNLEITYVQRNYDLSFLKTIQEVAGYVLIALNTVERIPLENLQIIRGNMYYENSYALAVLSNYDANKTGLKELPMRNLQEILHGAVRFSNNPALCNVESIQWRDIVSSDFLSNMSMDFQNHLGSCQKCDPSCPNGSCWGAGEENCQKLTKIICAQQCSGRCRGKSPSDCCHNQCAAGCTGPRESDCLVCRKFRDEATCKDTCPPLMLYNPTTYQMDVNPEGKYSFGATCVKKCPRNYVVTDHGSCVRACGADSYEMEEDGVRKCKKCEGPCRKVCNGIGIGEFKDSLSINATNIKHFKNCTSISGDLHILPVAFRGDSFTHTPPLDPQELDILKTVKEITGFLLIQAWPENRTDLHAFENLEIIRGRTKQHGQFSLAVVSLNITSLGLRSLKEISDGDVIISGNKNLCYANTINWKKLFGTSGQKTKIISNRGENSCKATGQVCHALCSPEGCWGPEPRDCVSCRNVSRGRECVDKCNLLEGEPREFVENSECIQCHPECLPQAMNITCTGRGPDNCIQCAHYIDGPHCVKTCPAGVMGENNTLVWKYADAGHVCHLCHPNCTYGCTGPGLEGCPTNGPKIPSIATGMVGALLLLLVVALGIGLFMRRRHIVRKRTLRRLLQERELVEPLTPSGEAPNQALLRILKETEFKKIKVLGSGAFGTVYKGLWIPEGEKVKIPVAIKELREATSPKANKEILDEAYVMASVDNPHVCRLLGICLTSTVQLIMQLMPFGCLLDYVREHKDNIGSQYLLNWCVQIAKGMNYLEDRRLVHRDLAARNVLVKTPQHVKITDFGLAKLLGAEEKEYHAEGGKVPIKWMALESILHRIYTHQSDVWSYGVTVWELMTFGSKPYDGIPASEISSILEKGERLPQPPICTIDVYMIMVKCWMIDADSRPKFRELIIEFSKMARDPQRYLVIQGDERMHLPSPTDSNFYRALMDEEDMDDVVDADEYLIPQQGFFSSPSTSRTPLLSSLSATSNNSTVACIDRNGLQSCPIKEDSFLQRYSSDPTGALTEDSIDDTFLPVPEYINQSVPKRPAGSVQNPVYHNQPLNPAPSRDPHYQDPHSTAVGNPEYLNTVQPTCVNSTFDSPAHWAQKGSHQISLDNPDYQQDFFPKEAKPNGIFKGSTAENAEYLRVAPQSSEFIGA
Chain of ROS1 kinase (P08922 1883-2347): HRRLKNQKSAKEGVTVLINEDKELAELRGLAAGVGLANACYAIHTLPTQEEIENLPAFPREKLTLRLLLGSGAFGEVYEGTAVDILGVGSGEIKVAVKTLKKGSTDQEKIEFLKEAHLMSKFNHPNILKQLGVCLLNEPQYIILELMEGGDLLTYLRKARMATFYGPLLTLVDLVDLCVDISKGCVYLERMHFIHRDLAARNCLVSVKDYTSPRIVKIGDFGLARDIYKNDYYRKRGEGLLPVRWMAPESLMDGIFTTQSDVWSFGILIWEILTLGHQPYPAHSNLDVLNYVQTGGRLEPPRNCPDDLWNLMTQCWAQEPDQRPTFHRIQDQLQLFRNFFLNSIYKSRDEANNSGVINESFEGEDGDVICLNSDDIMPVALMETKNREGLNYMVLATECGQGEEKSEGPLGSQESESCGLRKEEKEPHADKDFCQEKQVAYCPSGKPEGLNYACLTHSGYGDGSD
T1 sequence (P07992 whole entry, the tested form may be a part): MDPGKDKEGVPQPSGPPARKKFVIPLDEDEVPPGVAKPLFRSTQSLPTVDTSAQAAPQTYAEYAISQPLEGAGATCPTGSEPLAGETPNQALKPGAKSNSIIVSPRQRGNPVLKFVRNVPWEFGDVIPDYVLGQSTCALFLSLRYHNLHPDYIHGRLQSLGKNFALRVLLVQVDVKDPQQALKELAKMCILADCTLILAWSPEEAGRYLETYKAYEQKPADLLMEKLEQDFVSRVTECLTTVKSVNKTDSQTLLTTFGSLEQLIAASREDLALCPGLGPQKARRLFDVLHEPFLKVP
Chain of WT EGFR kinase (P00533 25-1210): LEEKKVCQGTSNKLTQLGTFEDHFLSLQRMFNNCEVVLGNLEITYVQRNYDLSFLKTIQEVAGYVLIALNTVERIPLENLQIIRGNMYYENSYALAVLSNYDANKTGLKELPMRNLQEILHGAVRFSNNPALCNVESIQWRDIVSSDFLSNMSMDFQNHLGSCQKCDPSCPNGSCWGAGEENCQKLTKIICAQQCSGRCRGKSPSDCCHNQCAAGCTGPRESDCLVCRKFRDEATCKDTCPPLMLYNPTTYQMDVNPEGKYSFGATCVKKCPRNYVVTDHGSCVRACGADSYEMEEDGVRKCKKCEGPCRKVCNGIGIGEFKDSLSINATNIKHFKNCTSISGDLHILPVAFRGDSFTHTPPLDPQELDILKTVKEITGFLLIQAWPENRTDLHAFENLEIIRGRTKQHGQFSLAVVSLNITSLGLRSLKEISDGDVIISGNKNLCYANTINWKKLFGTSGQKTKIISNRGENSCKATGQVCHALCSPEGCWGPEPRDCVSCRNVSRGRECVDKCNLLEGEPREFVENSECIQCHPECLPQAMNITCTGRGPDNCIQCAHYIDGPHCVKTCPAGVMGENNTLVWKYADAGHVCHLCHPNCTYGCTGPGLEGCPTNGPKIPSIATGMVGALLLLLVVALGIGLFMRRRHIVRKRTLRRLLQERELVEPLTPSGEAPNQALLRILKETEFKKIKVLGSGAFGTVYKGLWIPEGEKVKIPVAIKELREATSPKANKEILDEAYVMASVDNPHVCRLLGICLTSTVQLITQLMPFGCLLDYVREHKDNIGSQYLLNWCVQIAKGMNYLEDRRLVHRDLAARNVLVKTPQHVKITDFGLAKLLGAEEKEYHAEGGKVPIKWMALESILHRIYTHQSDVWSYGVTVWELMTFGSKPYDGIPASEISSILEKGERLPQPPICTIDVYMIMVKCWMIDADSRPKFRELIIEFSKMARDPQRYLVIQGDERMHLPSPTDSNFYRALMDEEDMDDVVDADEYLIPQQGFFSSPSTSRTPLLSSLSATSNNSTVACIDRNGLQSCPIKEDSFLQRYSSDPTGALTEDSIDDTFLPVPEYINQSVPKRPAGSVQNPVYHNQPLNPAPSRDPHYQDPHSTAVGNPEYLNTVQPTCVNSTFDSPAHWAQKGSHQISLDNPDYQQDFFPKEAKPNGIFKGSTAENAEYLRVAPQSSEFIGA
T2 sequence (P49356 whole entry, one chain of several): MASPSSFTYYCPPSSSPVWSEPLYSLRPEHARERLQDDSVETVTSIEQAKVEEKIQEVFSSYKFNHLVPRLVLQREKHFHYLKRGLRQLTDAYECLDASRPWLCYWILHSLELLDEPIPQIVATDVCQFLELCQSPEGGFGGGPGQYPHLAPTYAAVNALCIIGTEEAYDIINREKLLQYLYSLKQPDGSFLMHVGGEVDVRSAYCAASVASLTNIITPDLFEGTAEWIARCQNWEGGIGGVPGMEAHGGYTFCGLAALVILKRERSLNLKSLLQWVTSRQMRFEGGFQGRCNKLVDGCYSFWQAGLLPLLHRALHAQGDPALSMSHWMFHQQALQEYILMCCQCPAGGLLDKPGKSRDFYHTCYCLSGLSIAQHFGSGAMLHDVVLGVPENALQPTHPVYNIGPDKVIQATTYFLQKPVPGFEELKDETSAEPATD

SMILES: O=S(=O)([O-])CCSSCCS(=O)(=O)[O-].[Na+].[Na+] [Tavocept, disodium 2,2′-dithio-bis-ethane sulfonate]
- loss of ROS1 kinase activity ([1]; 5 mM Tavocept incubated with ROS1 for 24 hours prior to ATP and polyGT, 100 μM ATP): 15%
- loss of ROS1 kinase activity ([1]; 10 mM Tavocept incubated with ROS1 for 3 hours prior to ATP and polyGT, 100 μM ATP): 16%
- loss of ROS1 kinase activity ([1]; 10 mM Tavocept incubated with ROS1 for 24 hours prior to ATP and polyGT, 100 μM ATP): 31%
- loss of ROS1 kinase activity ([1]; 20 mM Tavocept incubated with ROS1 for 3 hours prior to ATP and polyGT, 100 μM ATP): 26%
- loss of ROS1 kinase activity ([1]; 20 mM Tavocept incubated with ROS1 for 24 hours prior to ATP and polyGT, 100 μM ATP): 48%
- effect on ROS1 kinase activity ([1]; Tavocept (2.5-20 mM) added simultaneously with ATP and polyGT): did not have a notable effect; also recorded: no discernible
- effect on crizotinib inhibition of ROS1 kinase activity ([1]; Tavocept (2.5 to 20 mM) incubated with ROS1 for 3 or 24 hours prior to crizotinib): additive manner
- effect on crizotinib inhibition of ROS1 kinase activity ([1]; Tavocept (2.5 to 20 mM) incubated with ROS1 for 3 or 24 hours prior to crizotinib, listed as BNP7787): additive effect
- effect on crizotinib inhibition of ROS1 kinase activity ([1]; Tavocept added simultaneously with crizotinib, 100 μM ATP): did not affect; also recorded: no discernible
- inhibition [2]: 9%
- potentiation of Erlotinib inhibition of T790M EGFR kinase ([3]; 10 μM ATP): strongly potentiated
- pIC50 ([3]; 10 μM ATP, read-out: IC50 on T790M EGFR kinase activity): < 1.40
- inhibition of T790M EGFR kinase ([3]; 10 μM or 100 μM ATP, physiological concentrations (<20 mM)): did not notably inhibit
- pIC50 ([3]; 100 μM ATP, read-out: IC50 on T790M EGFR kinase activity): < 1.40
- pIC50 ([3]; read-out: IC50 on T790M EGFR kinase): < 1.40
- ERCC1 cysteine xenobiotically modified [4]: Cys238; also recorded: Cys274
- Tavocept in plasma ([5]; 41 g/m^2 Tavocept): ~14 mM
- concentrations achieved in the clinic ([5]; as high as): ≤ 18000 µM
- plasma levels pharmacologically achievable ([5]; doses of 18.4 g/m^2 and higher): ≥ 8 mM
- pharmacologically achievable concentrations ([5]; in vivo): 6-10 mM
- plasma concentrations achieved in clinical trials ([5]; in vivo): 10000 µM
- Cmax ([5]; read-out: Cmax values in plasma, typical, doses as high as 41 g/m^2): 10000 µM
- Cmax ([5]; read-out: Cmax values in plasma, dose of 18.4 g/m^2): ≥ 10000 µM and 10000 µM
- Cmax ([5]; read-out: typical Cmax values, administered at 18 g/m^2): 10000 µM
- effect on FTase activity [6]: Inhibition
- number of Tavocept-derived mesna adducts on Human Grx ([7]; Mass Spectrum): two
- Grx cysteines with Tavocept-derived mesna adduct ([7]; atomic resolution map): Cys7 (Panel A) and Cys82
